Measured values reported in patent publication US10973771B2, “Method of making particles for use in a pharmaceutical composition” (VECTURA LIMITED, priority 2000, dated 2021).

Experiment: Fine particle fraction, capsule fired from twin stage impinger (TSI)
Type: physicochemical
Details: 20mg capsule fired from a twin stage impinger
Description: The 3:1 and the 19:1 blends were then each loaded into a 20mg capsule and fired from a twin stage impinger. A sample of unprocessed salbutamol sulphate was also fired from the TSI to provide a comparison.

salbutamol sulphate
Fine Particle Fraction %: 28%
